We go through 3 compounds from BindingDB's records for doi:10.1016/s0960-894x(00)00321-8 (Dupont Pharmaceuticals, 2000).

The IC50 is the concentration that gives 50% inhibition. A higher IC50 goes with weaker potency in that assay.

The target in the test is T1, Gag-Pol polyprotein [588-1027]/[588-1147] (Human immunodeficiency virus 1, UniProt P04585).
T1 construct: 588-1027; 588-1147
The test is described as follows: HIV-1 RT Assay. The note with it: pH 8.2; 37 °C. From the text: The IC50 of reverse transcriptase is the concentration that inhibits 50% of recombinant HIV-1 RT RNA-directed DNA polymerase activity in vitro.
For the compound `CC(C)C(=O)N1c2ccccc2NC(=O)C1(C#CC1CC1)C(F)(F)F` (stereo not drawn) [3-(2-cyclopropylethynyl)-4-(2-methylpropanoyl)-3-(trifluoromethyl)-1,2,3,4-tetrahydroquinoxalin-2-one], inhibition was half-maximal at 0.16 µM (IC50). In other words, the sub-micromolar range.

As for `O=C(c1ccccc1)N1c2ccccc2NC(=O)C1(C#CC1CC1)C(F)(F)F` (stereo not drawn) [4-benzoyl-3-(2-cyclopropylethynyl)-3-(trifluoromethyl)-1,2,3,4-tetrahydroquinoxalin-2-one], the concentration for half-maximal inhibition (IC50) is > 5 µM. The value for `O=C(C1CC1)N1c2ccccc2NC(=O)C1(C#CC1CC1)C(F)(F)F` (stereo not drawn) [4-cyclopropanecarbonyl-3-(2-cyclopropylethynyl)-3-(trifluoromethyl)-1,2,3,4-tetrahydroquinoxalin-2-one] was 0.127 µM.
